Columns and labels:
[1] = system: AT/RT-CD133+ cells; test: MTT assay of cell viability/proliferation in AT/RT-CD133+; type: cell-based, human; design: anti-cancer proliferation effect of single agent chemotherapy with addition of RV: dose or concentration left out as unconfirmed; details: for resistance of CD133+ to chemotherapeutic agent compared with CD133-: AT/RT cells, p<0.01
Description: (§1) This research followed the tenets of the Declaration of Helsinki and all samples were obtained after patients had given informed consent. Dissociated cells from the samples of brain tumors from AT/RT patients were labeled with 1 ml CD133/1 micromagnetic beads per million cells using a CD133 cell isolation kit (MACS, Miltenyi Biotec). CD133^+ cells were cultured in serum-free DMEM/F12 (GIBCO) medium supplemented with N2 supplement (R&D), 10 ng/ml human recombinant bFGF (R&D) and 10 ng/ml EGF. Gamma radiation was delivered by a Theratronic cobalt unit T-1000 (Theratronic Internation, Inc., Ottawa, Canada) at a dose rate of 1.1 Gy/min (SSD=57.5 cm). For evaluation of cell proliferation, cells were seeded on 24-well plates at a density of 2×10^4 cells/well in medium, followed by the methyl thiazol tetrazolium assay (MTT assay; Sigma-Aldrich Co.). The amount of MTT formazan product was determined using a microplate reader and an absorbance of 560 nm (SpectraMax 250, Molecular Devices, Sunnyvale, Calif., USA).

[2] = system: cancer-related stem cells; test: MTT cell viability after chemical treatment, cancer-related stem cells vs non-cancer-related stem cells; type: cell-based, human; details: MTT survival fraction; p<0.01
Description: Cells were seeded on 24-well plates at a density of 2×10^4 cells/well in medium, after post-chemical therapy 24 hours, then followed and analyzed by the MTT assay (Sigma-Aldrich Co.). The amount of MTT formazon product was determined by measuring the absorbance at 560 nm (SpectraMax 250, Molecular Devices, Sunnyvale, Calif., USA). The drugs for chemotherapy are consisted of visplatin, VP-16, doxorubicin, or paclitaxel.

[3] = system: AT/RT-CD133+ cells; test: Transwell migration/invasion and soft agar colony formation, AT/RT-CD133+; type: cell-based, human; design: migration/invasion: dose or concentration left out as unconfirmed; details: compared with IR treatment alone
Description: (§2) The 24-well plate Transwell® system with a polycarbonate filter membrane of 8-μm pore size (Corning, United Kingdom) was used. Cell suspensions were seeded in the upper compartment of the Transwell® chamber at a density of 1×10^5 cells in 100 μl serum-free medium. After 24 hours, the filter membrane was fixed in 4% formalin for 1 hour. The opposite surface of the filter membrane was stained with Hoechst 33342 for 3 min. The soft agar assay was performed as follows. The bottom of each well (35 mm) of a six-well culture dish was coated with 2 ml agar mixture (DMEM, 10% (v/v) FCS, 0.6% (w/v) agar). After the bottom layer solidified, 2 ml top agar-medium mixture (DMEM, 10% (v/v) FCS, 0.3% (w/v) agar) containing 2×10^4 cells was added, and dishes were incubated at 37° C. for 4 weeks. The plates were stained with 0.5 ml 0.005% Crystal Violet for 1 hour, and then the number of colonies was counted using a microscope.

[4] = system: MB-CSCs (medulloblastoma cancer stem-like cells); test: MTT assay of cell viability in MB-CSCs; type: cell-based, human
Description: Dissociated cells from the samples of medulloblastoma patients were cultured in serum-free DMEM/F12 (GIBCO) medium supplemented with N2 supplement (R&D), 10 ng/ml human recombinant bFGF (R&D) and 10 ng/ml EGF. Gamma radiation was delivered by a Theratronic cobalt unit T-1000 (Theratronic Internation, Inc., Ottawa, Canada) at a dose rate of 1.1 Gy/min (SSD=57.5 cm). For evaluation of cell proliferation, cells were seeded on 24-well plates at a density of 2×10^4 cells/well in medium, followed by the methyl thiazol tetrazolium assay (MTT assay; Sigma-Aldrich Co.).

[5] = system: AT/RT-CD133+ xenotransplant; test: Xenotransplanted tumorigenicity analysis of AT/RT cells in SCID mice; type: in vivo, SCID mice (BALB/c strain)
Description: All procedures involving animals were in accordance with the institutional animal welfare guideline of Taipei Veterans General Hospital. […] Tumor size was measured using calipers and the volume was calculated according to the formula: (length×width^2)/2 and then analyzed using Image Pro-plus software.

[6] = system: MB-CSCs; test: Migration/invasion and tumor colony formation, MB-CSCs; type: cell-based, human; details: 100 μM RV alone or combined with 2 Gy IR, compared with IR (2 Gy) alone
Description: as §2

[7] = system: transplanted iPS cells; test: In vivo osteogenic differentiation and teratoma formation of iPS cells transplanted to nude mice; design: species or system nude mice (BALB/c strain)
[8] = system: parental MB cells; test: MTT assay of cell viability in parental MB cells; type: cell-based, human; details: 50 μM RV, serum-condition culture
Description: Gamma radiation was delivered by a Theratronic cobalt unit T-1000 (Theratronic Internation, Inc., Ottawa, Canada) at a dose rate of 1.1 Gy/min (SSD=57.5 cm). For evaluation of cell proliferation, cells were seeded on 24-well plates at a density of 2×10^4 cells/well in medium, followed by the methyl thiazol tetrazolium assay (MTT assay; Sigma-Aldrich Co.).

[9] = system: ATRT-CD133+ cells; test: Percentage of CD133-positive cells in ATRT-CD133+; type: cell-based, human; design: dose or concentration left out as unconfirmed; details: RV for 3 days
[10] = system: AT/RT CD133- cells; test: MTT assay of proliferation in AT/RT CD133-; type: cell-based, human; design: dose or concentration left out as unconfirmed; details: RV for 72 h
Description: as §1

[11] = system: iPS and ES cells; test: Osteogenic differentiation of iPS and ES cells (Alizarin red, real-time RT-PCR); type: cell-based
Description: For osteogenic induction, ES or iPS cells were cultured in DMEM-LG (Invitrogen) supplemented with 50 μg·ml^−1 ascorbate-2 phosphate, 10 nmol·L^−1 dexamethasone, and 10 mmol·L^−1 β-glycerophosphate (Sigma, St. Louis, Mo.) for 2 weeks. At the end of osteogenic induction, cells were washed twice with PBS, fixed for 10 min at room temperature with 3.7% paraformaldehyde, and stained with von Kossa stain and Alizarin red to assess osteogenic differentiation.
Real-time RT-PCR was performed as previously described. Briefly, total RNA (1 μg) of each sample was reverse-transcribed using 0.5 μg oligo dT and 200 U Superscript II RT (Invitrogen). The amplification was carried out in a total volume of 20 μl containing 0.5 μmol·L^−1 of each primer, 4 mmol·L^−1 MgCl2, 2 μl LightCycler™-FastStart DNA Master SYBR green I (Roche Molecular Systems, Alameda, Calif.) and 2 μl of 1:10 diluted cDNA. PCR reactions were prepared in duplicate and performed using the following program: 95° C. for 10 min, followed by 40 cycles of denaturation at 95° C. for 10 sec. annealing at 55° C. for 5 sec. and extension at 72° C. for 20 sec. Standard curves (cycle threshold values versus template concentration) were prepared for each target gene and for the endogenous reference gene (GAPDH) for each sample. Quantification of unknown samples was performed using LightCycler Relative Quantification Software version 3.3 (Roche).

[12] = system: AT/RT-CD133+/- cells; test: Apoptosis (annexin V, caspase 3, TUNEL) in AT/RT-CD133+/-; type: cell-based, human; design: apoptosis induction: dose or concentration left out as unconfirmed
Description: The activities of caspases-8 and -3 were determined by ELISA kit (Medical & Biological Laboratories Co., Ltd, Nagoya, Japan) and quantified by reading at 490 nm (MRX; Dynatech Laboratories, Chantilly, Va., U.S.A.). Each individual sample was analyzed in triplicate. Furthermore, apoptotic cells were identified by the terminal dUTP nick-end labeling (TUNEL) method (In situ Cell Death Detection Kit, POD, Roche Boehringer Mannheim Corp., Ind., U.S.A.). Briefly, cells with cover slips were washed with 1× phosphate-buffered saline (PBS), fixed with 4% of paraformaldehyde for 10 min, permeabilized with 0.1% of Triton X-100 for 5 min, and incubated with the TUNEL reagent provided for 1 h. Chromogenic development was then applied using 3-amino-9-ethyl-carbazole, and slides were counterstained using H&E.

In the case of `N.N.[Cl][Pt][Cl]` [cisplatin], the “resistance of CD133+ to chemotherapeutic agent compared with CD133-” value (shortened to “resistance of CD133+ … compared with CD133-”) [1] is reported as “significantly resistant” and the “resistance of cancer-related stem cell to chemotherapeutic agent compared with non-cancer-related stem cell” value [2] is reported as “significantly resistant”.

In the case of `COc1cccc2c1C(=O)c1c(O)c3c(c(O)c1C2=O)C[C@@](O)(C(=O)CO)C[C@@H]3O[C@H]1C[C@H](N)[C@H](O)[C@H](C)O1` [doxorubicin], the “resistance of CD133+ … compared with CD133-” value [1] is reported as “significantly resistant” and the “resistance of cancer-related stem cell to chemotherapeutic agent compared with non-cancer-related stem cell” value [2] is reported as “significantly resistant”.

`COc1cc([C@@H]2c3cc4c(cc3[C@@H](O[C@@H]3O[C@@H]5CO[C@@H](C)O[C@H]5[C@H](O)[C@H]3O)[C@H]3COC(=O)[C@H]23)OCO4)cc(OC)c1O` [VP16, etoposide] was tested, and the “resistance of CD133+ … compared with CD133-” value [1] was “significantly resistant” and the “resistance of cancer-related stem cell to chemotherapeutic agent compared with non-cancer-related stem cell” value [2] was “significantly resistant”.

`Oc1ccc(/C=C/c2cc(O)cc(O)c2)cc1` [resveratrol, 3,4′,5-tri-hydroxy-trans-stilbene] was tested, and the tumor colony formation ([3]; 150 mM RV alone or combined with IR) was “significantly inhibited”, the migration/invasion ([3]; RV alone or combined with IR) was “significantly inhibited” and the “morphology of spheroid-like MB-CSCs” value ([4]; 100 μM RV, 48 hours) was “detached and became a single-suspension”. For the same compound, the “treatment effect of IR-2 Gy on MB-CSCs with addition of RV” value ([4]; 100 μM RV, p<0.01) was “significantly improved”, the “total cell number and growth rates of MB-CSCs” value ([4]; 150 μM RV for 48 h, p<0.001) was “significantly decreased” and the “reduction of viability of MB-CSCs” value ([4]; RV 100 μM) was 40-45%. For the same compound, the “cell viability of MB-CSC” value ([4]; RV lower than 50 μM, 48 hours, p>0.05) was “not significantly affected”, the “tumor formation in transplanted SCID mice” value ([5]; 1,000 AT/RT-CD133+ treated with 200 mM RV for 72 h, within 6 weeks after inoculation) was “did not form tumors” and the “mean survival times (Kaplan-Meier)” value ([5]; CD133+ and 150 mM RV/IR vs untreated or only IR-treated CD133+, p<0.01) was “significantly prolonged”. For the same compound, the tumor volumes ([5]; CD133+ treated by RV/IR vs CD133+ or CD133+ treated with only IR, p<0.01) was “significantly decreased”, the tumor formation ([5]; RV-treated CD133- group) was “no tumor formation” and the migration/invasion [6] was “significantly inhibited”. For the same compound, the tumor colony formation [6] was “significantly inhibited”, the “expression of Oct-4, Nanog, Klf-4, and C-Myc in grafts (quantitative RT-PCR)” value ([7]; osteogenic medium-treated iPS cells, mice fed with resveratrol, six weeks) was “significantly suppressed” and the “teratoma-like formation in grafts” value ([7]; osteogenic medium-treated iPS cells, resveratrol 7.5 μg/ml in drinking water, six weeks) was “No teratoma-like formation”. For the same compound, the “expression of OPN in grafts (immunofluorescence)” value ([7]; resveratrol 7.5 μg/ml in drinking water daily, six weeks after transplantation, vs vehicle) was “significantly higher”, the “cell viability of parental MB cells” value [8] was “moderately affected” and the “total number and growth rates of CD133+” value ([1]; 200 mM RV for 48 and 72 h) was “significantly decreased”. For the same compound, the “morphology of spheroidlike CD133+” value ([1]; 200 mM RV, 48 h) was “detached from clusters and became a single suspension”, the “reduction of viability of CD133+” value ([1]; RV 100 mM) was 20-25% and the “anti-cancer proliferation effect of single agent chemotherapy with addition of RV” value ([1]; RV added to cisplatin, VP-16, ATRT-CD133+/-) was “significantly improved”. The “reduction of viability of CD133+” value ([1]; RV for 72 h) was “about 40%”, the cell viability ([1]; RV lower than 50 mM, 24, 48, and 72 h, p>0.05) was “not significantly affected” and the “percentage of CD133-positive cells in ATRT-CD133+” value [9] was “decrease”. The “proliferation and growth of CD133-” value [10] was “totally block”, the “calcium accumulation / mineralization (Alizarin red staining)” value ([11]; 20 μmol·L^−1 resveratrol in osteogenic medium, 14 days) was “significantly increased” and the “expression of Runx2, OPN and IBSP” value ([11]; 20 μmol·L^−1 resveratrol, 7 or 14 days of induction, vs without resveratrol) was “significantly higher”. The “IR (2 Gy)-mediated apoptotic activity” value ([12]; RV plus IR 2 Gy, TUNEL) was “increase” and the apoptosis induction ([12]; RV, 72 h, annexin V, caspase 3, TUNEL) was “induce apoptosis”.

For `CC(=O)O[C@H]1C(=O)[C@@]2(C)[C@H]([C@H](OC(=O)c3ccccc3)[C@]3(O)C[C@H](OC(=O)[C@H](O)[C@@H](NC(=O)c4ccccc4)c4ccccc4)C(C)=C1C3(C)C)[C@]1(OC(C)=O)CO[C@@H]1C[C@@H]2O` [paclitaxel], the “resistance of cancer-related stem cell to chemotherapeutic agent compared with non-cancer-related stem cell” value [2] was “significantly resistant”.

Source: patent US8183297B2 (Taipei Veterans General Hospital, priority 2008, dated 2012)
